Literature values as cited in patent publication US20220279780A1, “AGRICULTURAL FORMULATION” (ISHIHARA SANGYO KAISHA, LTD., priority 2019, published 2022).

Structure (SMILES): N#CCNC(=O)c1cnccc1C(F)(F)F [flonicamid]
- water solubility: 5,200 ppm
